Reference: patent publication US8710065B2, “Tricyclic inhibitors of kinases” (AbbVie Inc., priority 2011, dated 2014)

molecular target: T1, GST-tagged-Wee1 kinase (Homo sapiens, UniProt P30291); experiment: Wee1 time-resolved fluorescence equilibrium binding assay (displacement of Oregon Green-labeled ATP-competitive kinase probe); conditions: read-out: Wee-1 inhibition (Ki)
T1 construct: purchased Carnabio (Carna Biosciences) 05-177
Method in brief: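 Time-resolved fluorescence equilibrium binding with GST-Wee1, measuring displacement of a rapidly reversible Oregon Green-labelled ATP-competitive probe by competitive inhibitors; values reported as Ki.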

T1 sequence (P30291 whole entry): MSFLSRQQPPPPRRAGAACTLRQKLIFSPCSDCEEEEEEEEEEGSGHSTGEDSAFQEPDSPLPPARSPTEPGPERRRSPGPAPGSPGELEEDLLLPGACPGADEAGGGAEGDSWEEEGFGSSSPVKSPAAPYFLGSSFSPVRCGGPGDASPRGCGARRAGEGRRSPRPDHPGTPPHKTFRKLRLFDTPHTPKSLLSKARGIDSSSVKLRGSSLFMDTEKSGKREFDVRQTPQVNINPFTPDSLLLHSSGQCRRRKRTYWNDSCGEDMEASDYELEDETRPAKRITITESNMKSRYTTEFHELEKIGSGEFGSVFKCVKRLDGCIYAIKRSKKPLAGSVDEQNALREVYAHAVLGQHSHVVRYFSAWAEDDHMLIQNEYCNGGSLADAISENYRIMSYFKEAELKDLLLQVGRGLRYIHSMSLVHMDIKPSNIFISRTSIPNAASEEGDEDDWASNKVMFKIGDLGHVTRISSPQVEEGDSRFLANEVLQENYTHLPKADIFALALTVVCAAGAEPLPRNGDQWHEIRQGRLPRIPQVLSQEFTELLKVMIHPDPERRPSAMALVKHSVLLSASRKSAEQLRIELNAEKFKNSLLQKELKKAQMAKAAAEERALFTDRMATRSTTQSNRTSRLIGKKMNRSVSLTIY

| Ki [nM] | Compound |
| --- | --- |
| < 10 | Cc1cc(Nc2ncc3c(=O)n(-c4ccccc4Cl)c4nccn4c3n2)ccc1O [Example 102, 6-(2-chlorophenyl)-2-[(4-hydroxy-3-methylphenyl)amino]imidazo[1,2-a]pyrimido[5,4-e]pyrimidin-5(6H)-one] |
| < 10 | CCN(CC)CCCOc1ccc(Nc2ncc3c(=O)n(-c4ccccc4Cl)c4nccn4c3n2)cc1C [Example 103, 6-(2-chlorophenyl)-2-({4-[3-(diethylamino)propoxy]-3-methylphenyl}amino)imidazo[1,2-a]pyrimido[5,4-e]pyrimidin-5(6H)-one] |
| < 10 | Cc1cc(Nc2ncc3c(=O)n(-c4ccccc4Cl)c4nccn4c3n2)ccc1N1CCNCC1 [Example 104, 6-(2-chlorophenyl)-2-{[3-methyl-4-(piperazin-1-yl)phenyl]amino}imidazo[1,2-a]pyrimido[5,4-e]pyrimidin-5(6H)-one] |
| < 10 | Cc1cc(Nc2ncc3c(=O)n(-c4ccccc4Cl)c4nccn4c3n2)ccc1N1CCCNCC1 [Example 105, 6-(2-chlorophenyl)-2-{[4-(1,4-diazepan-1-yl)-3-methylphenyl]amino}imidazo[1,2-a]pyrimido[5,4-e]pyrimidin-5(6H)-one] |
| < 10 | O=c1c2cnc(Nc3ccc4c(c3)CCCNC4)nc2n2ccnc2n1-c1ccccc1Cl [Example 106, 6-(2-chlorophenyl)-2-(2,3,4,5-tetrahydro-1H-2-benzazepin-7-ylamino)imidazo[1,2-a]pyrimido[5,4-e]pyrimidin-5(6H)-one] |
| < 10 | CN1CCc2ccc(Nc3ncc4c(=O)n(-c5ccccc5Cl)c5nccn5c4n3)cc2CC1 [Example 107, 6-(2-chlorophenyl)-2-[(3-methyl-2,3,4,5-tetrahydro-1H-3-benzazepin-7-yl)amino]imidazo[1,2-a]pyrimido[5,4-e]pyrimidin-5(6H)-one] |
| < 10 | CN1CCc2ccc(Nc3ncc4c(=O)n(-c5ccccc5Cl)c5nccn5c4n3)cc2C1(C)C [Example 108, 6-(2-chlorophenyl)-2-[(1,1,2-trimethyl-1,2,3,4-tetrahydroisoquinolin-7-yl)amino]imidazo[1,2-a]pyrimido[5,4-e]pyrimidin-5(6H)-one] |
| < 10 | O=c1c2cnc(Nc3ccc4c(c3)CNCC43CC3)nc2n2ccnc2n1-c1c(Cl)cccc1Cl [Example 109, 6-(2,6-dichlorophenyl)-2-(2′,3′-dihydro-1′H-spiro[cyclopropane-1,4′-isoquinolin]-7′-ylamino)imidazo[1,2-a]pyrimido[5,4-e]pyrimidin-5(6H)-one] |
| < 10 | Cc1cc(Nc2ncc3c(=O)n(-c4c(Cl)cccc4Cl)c4nccn4c3n2)ccc1N1CCNCC1 [Example 110, 6-(2,6-dichlorophenyl)-2-{[3-methyl-4-(piperazin-1-yl)phenyl]amino}imidazo[1,2-a]pyrimido[5,4-e]pyrimidin-5(6H)-one] |
| < 10 | O=c1c2cnc(Nc3ccc4c(c3)CNCC4)nc2n2ccnc2n1-c1c(Cl)cccc1Cl [Example 111, 6-(2,6-dichlorophenyl)-2-(1,2,3,4-tetrahydroisoquinolin-7-ylamino)imidazo[1,2-a]pyrimido[5,4-e]pyrimidin-5(6H)-one] |
| < 10 | CCc1cc(Nc2ncc3c(=O)n(-c4ccccc4Cl)c4nccn4c3n2)ccc1N1CCN(C)CC1 [Example 112, 6-(2-chlorophenyl)-2-{[3-ethyl-4-(4-methylpiperazin-1-yl)phenyl]amino}imidazo[1,2-a]pyrimido[5,4-e]pyrimidin-5(6H)-one] |
| < 10 | CC1(C)CN(CC2CCCCC2)Cc2cc(Nc3ncc4c(=O)n(-c5ccccc5Cl)c5nccn5c4n3)ccc21 [Example 113, 6-(2-chlorophenyl)-2-{[2-(cyclohexylmethyl)-4,4-dimethyl-1,2,3,4-tetrahydroisoquinolin-7-yl]amino}imidazo[1,2-a]pyrimido[5,4-e]pyrimidin-5(6H)-one] |
| < 10 | CN(C)C1Cc2ccc(Nc3ncc4c(=O)n(-c5c(Cl)cccc5Cl)c5nccn5c4n3)cc2C1 (stereo not shown) [Example 114, 6-(2,6-dichlorophenyl)-2-{[2-(dimethylamino)-2,3-dihydro-1H-inden-5-yl]amino}imidazo[1,2-a]pyrimido[5,4-e]pyrimidin-5(6H)-one] |
| < 10 | CC(C)N1CCN(c2ccc(Nc3ncc4c(=O)n(-c5c(Cl)cccc5Cl)c5nccn5c4n3)cc2)CC1 [Example 115, 6-(2,6-dichlorophenyl)-2-({4-[4-(propan-2-yl)piperazin-1-yl]phenyl}amino)imidazo[1,2-a]pyrimido[5,4-e]pyrimidin-5(6H)-one] |
| < 10 | O=c1c2cnc(Nc3ccc(N4CCN5CCCC5C4)cc3)nc2n2ccnc2n1-c1c(Cl)cccc1Cl (stereo not shown) [Example 116, 6-(2,6-dichlorophenyl)-2-{[4-(hexahydropyrrolo[1,2-a]pyrazin-2(1H)-yl)phenyl]amino}imidazo[1,2-a]pyrimido[5,4-e]pyrimidin-5(6H)-one] |
| 10 to 100 | CCC(CC)CN1Cc2cc(Nc3ncc4c(=O)n(-c5ccccc5Cl)c5nccn5c4n3)ccc2C(C)(C)C1 [Example 117, 6-(2-chlorophenyl)-2-{[2-(2-ethylbutyl)-4,4-dimethyl-1,2,3,4-tetrahydroisoquinolin-7-yl]amino}imidazo[1,2-a]pyrimido[5,4-e]pyrimidin-5(6H)-one] |
| < 10 | CN1CCN(CCc2ccc(Nc3ncc4c(=O)n(-c5c(Cl)cccc5Cl)c5nccn5c4n3)cc2)CC1 [Example 118, 6-(2,6-dichlorophenyl)-2-({4-[2-(4-methylpiperazin-1-yl)ethyl]phenyl}amino)imidazo[1,2-a]pyrimido[5,4-e]pyrimidin-5(6H)-one] |
| < 10 | CN(C)CCN1CCc2cc(Nc3ncc4c(=O)n(-c5c(Cl)cccc5Cl)c5nccn5c4n3)ccc21 [Example 119, 6-(2,6-dichlorophenyl)-2-({1-[2-(dimethylamino)ethyl]-2,3-dihydro-1H-indol-5-yl}amino)imidazo[1,2-a]pyrimido[5,4-e]pyrimidin-5(6H)-one] |
| < 10 | CCc1cc(Nc2ncc3c(=O)n(-c4c(Cl)cccc4Cl)c4nccn4c3n2)ccc1N1CCN(C)CC1 [Example 120, 6-(2,6-dichlorophenyl)-2-{[3-ethyl-4-(4-methylpiperazin-1-yl)phenyl]amino}imidazo[1,2-a]pyrimido[5,4-e]pyrimidin-5(6H)-one] |
| < 10 | CN1CCCN(c2ccc(Nc3ncc4c(=O)n(-c5c(Cl)cccc5Cl)c5nccn5c4n3)cc2CO)CC1 [Example 121, 6-(2,6-dichlorophenyl)-2-{[3-(hydroxymethyl)-4-(4-methyl-1,4-diazepan-1-yl)phenyl]amino}imidazo[1,2-a]pyrimido[5,4-e]pyrimidin-5(6H)-one] |
| < 10 | O=c1c2cnc(Nc3ccc4c(c3)CCNC4)nc2n2ccnc2n1-c1c(Cl)cccc1Cl [Example 122, 6-(2,6-dichlorophenyl)-2-(1,2,3,4-tetrahydroisoquinolin-6-ylamino)imidazo[1,2-a]pyrimido[5,4-e]pyrimidin-5(6H)-one] |
| < 10 | CN1CCN(c2ccc(Nc3ncc4c(=O)n(-c5c(Cl)cc(F)cc5Cl)c5nccn5c4n3)cc2)CC1 [Example 123, 6-(2,6-dichloro-4-fluorophenyl)-2-{[4-(4-methylpiperazin-1-yl)phenyl]amino}imidazo[1,2-a]pyrimido[5,4-e]pyrimidin-5(6H)-one] |
